Source: patent publication US20240376100A1 (Redona Therapeutics, Inc., priority 2021, published 2024)
Counter-ions that a name gives are not always drawn.

The compounds below were run against PAPD5 enzyme (Homo sapiens, UniProt Q8NDF8) (assay: PAPD5 assay (AMP incorporation onto 3'-terminus of RNA substrate, fluorescence quench)). Details: PAPD5 protein 0.3 nM, ATP 50 μM, 30 minutes preincubation, room temperature; read-out: Potency PAPD5 IC50.
Type: biochemical
Outline: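 Enzyme at 0.3 nM with 50 μM ATP, pH 7.3 HEPES buffer, preincubated with compound 30 minutes at room temperature; 5 nM 5′-fluorescein RNA substrate and 20 nM TAMRA quench probe then added. Initial rates from kinetic fluorescein decrease over ~90 minutes; IC50 by four-parameter fit.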

PAPD5 enzyme, sequence (Q8NDF8 whole entry): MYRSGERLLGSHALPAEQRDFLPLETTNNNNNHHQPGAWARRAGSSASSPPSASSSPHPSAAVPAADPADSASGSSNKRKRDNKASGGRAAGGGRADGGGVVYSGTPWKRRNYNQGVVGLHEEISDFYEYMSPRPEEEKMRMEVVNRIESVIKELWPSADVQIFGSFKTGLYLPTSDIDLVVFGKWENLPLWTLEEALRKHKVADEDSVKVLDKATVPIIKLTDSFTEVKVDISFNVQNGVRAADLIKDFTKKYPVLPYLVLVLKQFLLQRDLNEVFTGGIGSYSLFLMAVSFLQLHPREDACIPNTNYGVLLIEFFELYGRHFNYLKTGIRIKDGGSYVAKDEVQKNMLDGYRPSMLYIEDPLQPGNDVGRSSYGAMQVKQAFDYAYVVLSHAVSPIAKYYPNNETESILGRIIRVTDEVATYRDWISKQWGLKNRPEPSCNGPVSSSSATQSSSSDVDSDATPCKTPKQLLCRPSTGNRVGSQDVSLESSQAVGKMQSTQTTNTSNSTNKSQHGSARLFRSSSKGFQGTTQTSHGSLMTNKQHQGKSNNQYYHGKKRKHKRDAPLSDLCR

Row | IC50 [µM] | SMILES
1 | ≤ 1 | CCC(=O)Nc1cc(C)c(-n2cc(C(=O)O)c(=O)c3cc(Cl)c(N4Cc5cccnc5C4)cc32)cn1 [Example 82, 6-chloro-7-(5,7-dihydro-6H-pyrrolo[3,4-b]pyridin-6-yl)-1-(4-methyl-6-propionamidopyridin-3-yl)-4-oxo-1,4-dihydroquinoline-3-carboxylic acid]
2 | ≤ 1 | Cc1cc(NC(=O)C(C)C)ncc1-n1cc(C(=O)O)c(=O)c2cc(Cl)c(N3Cc4cccnc4C3)cc21 [Example 83, 6-chloro-7-(5,7-dihydro-6H-pyrrolo[3,4-b]pyridin-6-yl)-1-(6-isobutyramido-4-methylpyridin-3-yl)-4-oxo-1,4-dihydroquinoline-3-carboxylic acid]
3 | ≤ 1 | O=C(O)c1cn(C2CCN(C(=O)c3ccccc3)CC2)c2cc(N3Cc4cccnc4C3)c(Cl)cc2c1=O [Example 84, 1-(1-benzoylpiperidin-4-yl)-6-chloro-7-(5,7-dihydro-6H-pyrrolo[3,4-b]pyridin-6-yl)-4-oxo-1,4-dihydroquinoline-3-carboxylic acid]
4 | ≤ 1 | O=C(O)c1cn(Cc2c[nH]cn2)c2cc(N3Cc4cccnc4C3)c(Cl)cc2c1=O [Example 85, 1-((1H-imidazol-4-yl)methyl)-6-chloro-7-(5,7-dihydro-6H-pyrrolo[3,4-b]pyridin-6-yl)-4-oxo-1,4-dihydroquinoline-3-carboxylic acid]
5 | ≤ 1 | Cc1cc(N(C)C)ncc1-n1cc(C(=O)O)c(=O)c2cc(F)c(N3Cc4cccnc4C3)cc21 [Example 86, 7-(5,7-dihydro-6H-pyrrolo[3,4-b]pyridin-6-yl)-1-(6-(dimethylamino)-4-methylpyridin-3-yl)-6-fluoro-4-oxo-1,4-dihydroquinoline-3-carboxylic acid]
6 | ≤ 1 | CNc1cc(C)c(-n2cc(C(=O)O)c(=O)c3cc(F)c(N4Cc5cccnc5C4)cc32)cn1 [Example 87, 7-(5,7-dihydro-6H-pyrrolo[3,4-b]pyridin-6-yl)-6-fluoro-1-(4-methyl-6-(methylamino)pyridin-3-yl)-4-oxo-1,4-dihydroquinoline-3-carboxylic acid]
7 | ≤ 1 | CCOC(=O)c1cn(-c2ccc(O)nc2)c2cc(N3Cc4cccnc4C3)c(Cl)cc2c1=O [Example 88, Ethyl 6-chloro-1-(6-hydroxypyridin-3-yl)-4-oxo-7-{5H,7H-pyrrolo[3,4-b]pyridin-6-yl}quinoline-3-carboxylate]
8 | ≤ 1 | CCOC(=O)c1cn(-c2ccc(N)nc2)c2cc(N3Cc4cccnc4C3)c(Cl)cc2c1=O [Example 89]
9 | ≤ 1 | CCOC(=O)c1cn(-c2ccc(Cl)nc2)c2cc(N3Cc4cccnc4C3)c(Cl)cc2c1=O [Example 90, Ethyl 6-chloro-1-(6-chloropyridin-3-yl)-7-(5,7-dihydro-6H-pyrrolo[3,4-b]pyridin-6-yl)-4-oxo-1,4-dihydroquinoline-3-carboxylate]
10 | ≤ 1 | Cc1cc(N2CCC2)ncc1-n1cc(C(=O)O)c(=O)c2cc(Cl)c(N3Cc4cccnc4C3)nc21 [Example 91, 1-(6-(azetidin-1-yl)-4-methylpyridin-3-yl)-6-chloro-7-(5,7-dihydro-6H-pyrrolo[3,4-b]pyridin-6-yl)-4-oxo-1,4-dihydro-1,8-naphthyridine-3-carboxylic acid]
11 | ≤ 1 | CN(CCO)c1ccn(-c2cc3c(cc2Cl)c(=O)c(C(=O)O)cn3-c2ccc(N)nc2)n1 [Example 92, 1-(6-aminopyridin-3-yl)-6-chloro-7-(3-((2-hydroxyethyl)(methyl)amino)-1H-pyrazol-1-yl)-4-oxo-1,4-dihydroquinoline-3-carboxylic acid]
12 | ≤ 1 | CN(CCO)c1ccn(-c2nc3c(cc2Cl)c(=O)c(C(=O)O)cn3-c2ccc(N)nc2)n1 [Example 93, 1-(6-aminopyridin-3-yl)-6-chloro-7-(3-((2-hydroxyethyl)(methyl)amino)-1H-pyrazol-1-yl)-4-oxo-1,4-dihydro-1,8-naphthyridine-3-carboxylic acid]
13 | ≤ 1 | COCCN(C)c1ccn(-c2cc3c(cc2Cl)c(=O)c(C(=O)O)cn3-c2ccc(N)nc2)n1 [Example 94, 1-(6-aminopyridin-3-yl)-6-chloro-7-(3-((2-methoxyethyl)(methyl)amino)-1H-pyrazol-1-yl)-4-oxo-1,4-dihydroquinoline-3-carboxylic acid]
14 | ≤ 1 | COCCN(C)c1ccn(-c2nc3c(cc2Cl)c(=O)c(C(=O)O)cn3-c2ccc(N)nc2)n1 [Example 95, 1-(6-aminopyridin-3-yl)-6-chloro-7-(3-((2-methoxyethyl)(methyl)amino)-1H-pyrazol-1-yl)-4-oxo-1,4-dihydro-1,8-naphthyridine-3-carboxylic acid]
15 | ≤ 1 | N#Cc1cc2c(=O)c(C(=O)O)cn(-c3cnc(N)cn3)c2cc1N1Cc2cccnc2C1 [Example 96, 1-(5-aminopyrazin-2-yl)-6-cyano-7-(5,7-dihydro-6H-pyrrolo[3,4-b]pyridin-6-yl)-4-oxo-1,4-dihydroquinoline-3-carboxylic acid]
16 | ≤ 1 | COCCN1CCC(Cn2cc(C(=O)O)c(=O)c3cc(Cl)c(N4Cc5cccnc5C4)nc32)CC1 [Example 100, 6-chloro-7-(5,7-dihydro-6H-pyrrolo[3,4-b]pyridin-6-yl)-1-((1-(2-methoxyethyl)piperidin-4-yl)methyl)-4-oxo-1,4-dihydro-1,8-naphthyridine-3-carboxylic acid hydro chloride]
17 | ≤ 1 | O=C(O)c1cn(C2CCOCC2)c2nc(N3Cc4cccnc4C3)c(Cl)cc2c1=O [Example 101, 6-chloro-7-(5,7-dihydro-6H-pyrrolo[3,4-b]pyridin-6-yl)-4-oxo-1-(tetrahydro-2H-pyran-4-yl)-1,4-dihydro-1,8-naphthyridine-3-carboxylic acid]
18 | ≤ 1 | COc1cnc(-n2cc(C(=O)O)c(=O)c3cc(F)c(N4Cc5cccnc5C4)nc32)cn1 [Example 103, 7-(5,7-dihydro-6H-pyrrolo[3,4-b]pyridin-6-yl)-6-fluoro-1-(5-methoxypyrazin-2-yl)-4-oxo-1,4-dihydro-1,8-naphthyridine-3-carboxylic acid]
19 | ≤ 1 | Cc1cc(NC(=O)C2CC2)ncc1-n1cc(C(=O)O)c(=O)c2cc(Cl)c(N3Cc4cccnc4C3)cc21 [Example 114, 6-chloro-1-(6-(cyclopropanecarboxamido)-4-methylpyridin-3-yl)-7-(5,7-dihydro-6H-pyrrolo[3,4-b]pyridin-6-yl)-4-oxo-1,4-dihydroquinoline-3-carboxylic acid]
20 | ≤ 1 | Cc1cc(NC(=O)N2CCOCC2)ncc1-n1cc(C(=O)O)c(=O)c2cc(Cl)c(N3Cc4cccnc4C3)cc21 [Example 115, 6-chloro-7-(5,7-dihydro-6H-pyrrolo[3,4-b]pyridin-6-yl)-1-(4-methyl-6-(morpholine-4-carboxamido)pyridin-3-yl)-4-oxo-1,4-dihydroquinoline-3-carboxylic acid]
21 | ≤ 1 | Cc1cc(NC(=O)N(C)C)ncc1-n1cc(C(=O)O)c(=O)c2cc(Cl)c(N3Cc4cccnc4C3)cc21 [Example 116, 6-chloro-7-(5,7-dihydro-6H-pyrrolo[3,4-b]pyridin-6-yl)-1-(6-(3,3-dimethylureido)-4-methylpyridin-3-yl)-4-oxo-1,4-dihydroquinoline-3-carboxylic acid]
22 | ≤ 1 | CCc1cc(N)ncc1-n1cc(C(=O)O)c(=O)c2cc(Cl)c(N3Cc4cccnc4C3)cc21 [Example 117, 1-(6-amino-4-ethylpyridin-3-yl)-6-chloro-7-(5,7-dihydro-6H-pyrrolo[3,4-b]pyridin-6-yl)-4-oxo-1,4-dihydroquinoline-3-carboxylic acid]
23 | ≤ 1 | Nc1cc(C2CC2)c(-n2cc(C(=O)O)c(=O)c3cc(Cl)c(N4Cc5cccnc5C4)cc32)cn1 [Example 118, 1-(6-amino-4-cyclopropylpyridin-3-yl)-6-chloro-7-(5,7-dihydro-6H-pyrrolo[3,4-b]pyridin-6-yl)-4-oxo-1,4-dihydroquinoline-3-carboxylic acid]
24 | ≤ 1 | O=C(O)c1cn(CC2CCNCC2)c2cc(N3Cc4cccnc4C3)c(Cl)cc2c1=O [Example 119, 6-chloro-7-(5,7-dihydro-6H-pyrrolo[3,4-b]pyridin-6-yl)-4-oxo-1-(piperidin-4-ylmethyl)-1,4-dihydroquinoline-3-carboxylic acid hydrochloride]
25 | ≤ 1 | CN1CCC(Cn2cc(C(=O)O)c(=O)c3cc(Cl)c(N4Cc5cccnc5C4)cc32)CC1 [Example 120, 6-chloro-7-(5,7-dihydro-6H-pyrrolo[3,4-b]pyridin-6-yl)-1-((1-methylpiperidin-4-yl)methyl)-4-oxo-1,4-dihydroquinoline-3-carboxylic acid]
26 | ≤ 1 | CN1CCC(n2cc(C(=O)O)c(=O)c3cc(Cl)c(N4Cc5cccnc5C4)cc32)CC1 [Example 121, 6-chloro-7-(5,7-dihydro-6H-pyrrolo[3,4-b]pyridin-6-yl)-1-(1-methylpiperidin-4-yl)-4-oxo-1,4-dihydroquinoline-3-carboxylic acid]
27 | ≤ 1 | CC(=O)N1CCC(Cn2cc(C(=O)O)c(=O)c3cc(Cl)c(N4Cc5cccnc5C4)cc32)CC1 [Example 122, 1-((1-acetylpiperidin-4-yl)methyl)-6-chloro-7-(5,7-dihydro-6H-pyrrolo[3,4-b]pyridin-6-yl)-4-oxo-1,4-dihydroquinoline-3-carboxylic acid]
28 | ≤ 1 | O=C(O)c1cn(C2CCNCC2)c2cc(N3Cc4cccnc4C3)c(Cl)cc2c1=O [Example 123, 6-chloro-7-(5,7-dihydro-6H-pyrrolo[3,4-b]pyridin-6-yl)-4-oxo-1-(piperidin-4-yl)-1,4-dihydroquinoline-3-carboxylic acid hydrochloride]
29 | ≤ 1 | Cn1cc(Cn2cc(C(=O)O)c(=O)c3cc(Cl)c(N4Cc5cccnc5C4)cc32)cn1 [Example 124, 6-chloro-7-(5,7-dihydro-6H-pyrrolo[3,4-b]pyridin-6-yl)-1-((1-methyl-1H-pyrazol-4-yl)methyl)-4-oxo-1,4-dihydroquinoline-3-carboxylic acid]
